Experimental data reported in patent publication US20250092065A1, “2-(INDAZOL-5-YL)-6-(PIPERIDIN-4-YL)-1,7-NAPHTHYRIDINE DERIVATIVES AND RELATED COMPOUNDS AS MODULATORS FOR SPLICING NUCLEIC ACIDS AND FOR THE TREATMENT OF PROLIFERATIVE DISEASES” (REMIX THERAPEUTICS INC., priority 2022, published 2025).
Where two headings read alike, the source gives them in different places.

Legend:
HTT mRNA = experiment: RT-qPCR splicing assay, HTT mRNA canonical (CJ) and alternative (AJ) junction; assay type: cell-based, human; settings: for AC50: HTT alternative junction mRNA, read-out: HTT AJ (increase in AJ mRNA, AC50)
How it was run: (§1)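 A673 or K562 cells treated 24 h at 37 °C with 11-point 3-fold dilutions (top final 10 uM, DMSO ≤0.25%). Lysates analysed by one-step RT-qPCR for canonical (CJ) and alternative-exon (AJ) junctions, normalized to GAPDH, GUSB or PPIA. ΔΔCt vs DMSO, RQ = 2^(−ΔΔCt), expressed as percentage response.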

SMN2 mRNA = experiment: RT-qPCR splicing assay, SMN2 mRNA; assay type: cell-based, human; settings: canonical junction qPCR panel, Table 4, read-out: SMN2 IC50 (decrease in CJ mRNA levels)
How it was run: as §1

MYB mRNA = experiment: RT-qPCR splicing assay, MYB mRNA canonical (CJ) and alternative (AJ) junction; assay type: cell-based, human; settings: for AC50: MYB alternative junction mRNA, read-out: MYB AJ (increase in AJ mRNA, AC50)
How it was run: as §1

HTT = experiment: HiBiT protein abundance assay, HTT (K562 HiBiT knock-in); assay type: cell-based, human; settings: HiBiT knock-in K562 cells, 24 hours, top dose 10 μM
How it was run: (§2)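 Endogenously HiBiT-tagged K562 lines were treated for 24 h at 37 °C with 10-point 3-fold dilutions (top 10 μM final, DMSO ≤0.25%). Lytic LgBiT complementation luminescence was normalized between unmodified K562 (PC) and DMSO-treated tagged cells (NC); IC50 was interpolated at 50% from a four-parameter logistic fit.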

MYB = experiment: HiBiT protein abundance assay, MYB (K562 HiBiT knock-in); assay type: cell-based, human; settings: HiBiT knock-in K562 cells, 24 hours, top dose 10 μM
How it was run: as §2

K562 cells = experiment: Cell Titer Glo 2.0 cell viability (toxicity) assay, K562; settings: 500 cells/well, 72 hours
Target C = experiment: HiBiT protein abundance assay, Target C (K562 HiBiT knock-in); assay type: cell-based, human; settings: HiBiT knock-in K562 cells, 24 hours, top dose 10 μM
How it was run: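 K562 HiBiT knock-in cells (10000/well) were treated 24 h at 37° C with a 10-point 3-fold dilution series (top 10 μM final, ≤0.25% DMSO). HiBiT luminescence was read after lytic LgBiT detection. Percent response used unmodified K562 and DMSO-treated knock-in controls, and IC50 came from a four-parameter fit at 50% of untreated.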

[1] = Homo sapiens, HTT canonical junction mRNA, RT-qPCR, read-out: HTT CJ (decrease in CJ mRNA levels, IC50)
[2] = Homo sapiens, canonical junction qPCR panel, Table 4, read-out: HTT IC50 (decrease in CJ mRNA levels)
[3] = Homo sapiens, MYB canonical junction mRNA, RT-qPCR, read-out: MYB CJ (decrease in CJ mRNA levels, IC50)
[4] = Homo sapiens, canonical junction qPCR panel, Table 4, read-out: MYB IC50 (decrease in CJ mRNA levels)

Structure (SMILES)	IC50 (HTT mRNA; HTT canonical junction mRNA, RT-qPCR, read-out: HTT CJ (decrease in CJ mRNA levels, IC50)) [nM]	IC50 (HTT mRNA; canonical junction qPCR panel, Table 4, read-out: HTT IC50 (decrease in CJ mRNA levels)) [nM]	IC50 (SMN2 mRNA) [nM]	IC50 (MYB mRNA; MYB canonical junction mRNA, RT-qPCR, read-out: MYB CJ (decrease in CJ mRNA levels, IC50)) [nM]	IC50 (MYB mRNA; canonical junction qPCR panel, Table 4, read-out: MYB IC50 (decrease in CJ mRNA levels)) [nM]	IC50 (HTT) [nM]	IC50 (MYB) [nM]	IC50 (Target C) [nM]	IC50 (HTT mRNA; [1]) [nM]	IC50 (HTT mRNA; [2]) [nM]	IC50 (SMN2 mRNA; Homo sapiens) [nM]	IC50 (MYB mRNA; [3]) [nM]	IC50 (MYB mRNA; [4]) [nM]	AC50 (HTT mRNA; RT-qPCR) [nM]	AC50 (MYB mRNA; RT-qPCR) [nM]	Effect of Exemplary Compounds on Cell Viability, K562 (K562 cells)	AC50 (HTT mRNA; Homo sapiens, RT-qPCR) [nM]	AC50 (MYB mRNA; Homo sapiens, RT-qPCR) [nM]
Cn1cc2cc(-c3ccc4nc(C5CCNCC5)ccc4n3)c(F)cc2n1 [Compound 193]	–	–	–	–	–	1000 to 10000	1000 to 10000	1000 to 10000	1000 to 10000	1000 to 10000	1000 to 10000	1000 to 10000	1000 to 10000	–	–	C (C represents 1000-9999 nM)	1000 to 10000	1000 to 10000
Cn1cc2cc(-c3ccc4nc(C5CCNCC5)ccc4n3)c(C(F)F)cc2n1 [Compound 196]	–	–	–	–	–	> 10000	> 10000	> 10000	> 10000	> 10000	1000 to 10000	> 10000	> 10000	–	–	D (D represents greater than 10 μM in K562 cells)	> 10000	> 10000
Cn1cc2nc(-c3ccc4nc(C5CCNCC5)ccc4n3)ccc2n1 [Compound 199]	–	–	–	–	–	100 to 1000	100 to 1000	100 to 1000	100 to 1000	100 to 1000	100 to 1000	100 to 1000	100 to 1000	–	–	B (B represents 100-1000 nM)	100 to 1000	100 to 1000
Cn1cc2cc(-c3ccc4nc(C5CCNCC5)ccc4n3)ncc2n1 [Compound 200]	–	–	–	–	–	1000 to 10000	1000 to 10000	1000 to 10000	1000 to 10000	1000 to 10000	1000 to 10000	1000 to 10000	1000 to 10000	–	–	C (C represents 1000-9999 nM)	1000 to 10000	1000 to 10000

Second part, led by results:

IC50 (HTT mRNA; HTT canonical junction mRNA, RT-qPCR, read-out: HTT CJ (decrease in CJ mRNA levels, IC50)) [nM]	IC50 (HTT mRNA; canonical junction qPCR panel, Table 4, read-out: HTT IC50 (decrease in CJ mRNA levels)) [nM]	IC50 (SMN2 mRNA) [nM]	IC50 (MYB mRNA; MYB canonical junction mRNA, RT-qPCR, read-out: MYB CJ (decrease in CJ mRNA levels, IC50)) [nM]	IC50 (MYB mRNA; canonical junction qPCR panel, Table 4, read-out: MYB IC50 (decrease in CJ mRNA levels)) [nM]	IC50 (HTT) [nM]	IC50 (MYB) [nM]	IC50 (Target C) [nM]	IC50 (HTT mRNA; [1]) [nM]	IC50 (HTT mRNA; [2]) [nM]	IC50 (SMN2 mRNA; Homo sapiens) [nM]	IC50 (MYB mRNA; [3]) [nM]	IC50 (MYB mRNA; [4]) [nM]	Structure (SMILES)	AC50 (HTT mRNA; RT-qPCR) [nM]	AC50 (MYB mRNA; RT-qPCR) [nM]	Effect of Exemplary Compounds on Cell Viability, K562 (K562 cells)	AC50 (HTT mRNA; Homo sapiens, RT-qPCR) [nM]	AC50 (MYB mRNA; Homo sapiens, RT-qPCR) [nM]
> 10000	> 10000	> 10000	> 10000	> 10000	< 100	< 100	< 100	–	–	–	–	–	Cc1c(O)c(-c2ccc3nc(N4CCC(NC(C)(C)C)C4)ccc3n2)cc2cn(C)nc12 (stereo not drawn) [Compound 191]	> 10000	> 10000	A (A represents <100 nM)	–	–
–	–	–	–	–	100 to 1000	< 100	100 to 1000	100 to 1000	100 to 1000	< 100	100 to 1000	100 to 1000	Cn1cc2cc(-c3ccc4nc(N5CC[C@@H](NCC6CC6)C5)ccc4n3)c(O)cc2n1 [Compound 195]	–	–	B (B represents 100-1000 nM)	100 to 1000	< 100
–	–	–	–	–	< 100	100 to 1000	100 to 1000	< 100	< 100	< 100	100 to 1000	100 to 1000	Cn1cc2cc(-c3ccc4nc(N5CC[C@H](NC6CC6)C5)ccc4n3)c(O)cc2n1 [Compound 197]	–	–	B (B represents 100-1000 nM)	< 100	100 to 1000
–	–	–	–	–	< 100	< 100	< 100	< 100	< 100	< 100	< 100	< 100	Cn1cc2cc(-c3ccc4nc(N5CC[C@@H](NC6CC6)C5)ccc4n3)c(O)cc2n1 [Compound 198]	–	–	B (B represents 100-1000 nM)	< 100	< 100
–	–	–	–	–	< 100	100 to 1000	100 to 1000	100 to 1000	100 to 1000	< 100	100 to 1000	100 to 1000	Cc1cn2cc(-c3ccc4nc(N5CCC(NC(C)(C)C)C5)ccc4n3)cc(C)c2n1 (stereo not drawn) [Compound 201]	–	–	B (B represents 100-1000 nM)	100 to 1000	100 to 1000
